From patent US10435435B2, “Quinstatin compounds” (THE ARIZONA BOARD OF REGENTS ON BEHALF OF ARIZONA STATE …, priority 2015, dated 2019) come the findings set out here.

Like-named read-outs stand apart in the source and are kept apart here. Square brackets hold non-standard residues; d marks the D form. Peptide text beside a SMILES is read from it. * marks the point of attachment. Dolaproine = CO[C@@H]([C@@H]1CCCN1)[C@@H](C)C(=O)O; Dil = CC[C@H](C)[C@H](NC)[C@@H](CC(=O)O)OC; X1 = C[C@@H](N*)[C@@H](O)c1ccccc1; NMeV = CN[C@H](C(=O)O)C(C)C

Test [1] has as its system BXPC-3 (pancreas) cancer cell line. The experiment in a line: NCI sulforhodamine B growth inhibition, BXPC-3. As to conditions: BXPC-3, 48 h. It counts as cell-based, human. The protocol:
(§1) Next, serial dilutions of the compounds were added.

Test [2] deals with MCF-7 (breast) cancer cell line. The experiment in a line: NCI sulforhodamine B growth inhibition, MCF-7. It counts as cell-based, human. To be noted: MCF-7, 48 h. The procedure:
as §1

Test [3] concerns SF-268 (CNS) cancer cell line. The test is described as follows: NCI sulforhodamine B growth inhibition, SF-268. It counts as cell-based, human. As to conditions: SF-268, 48 h. The procedure: as §1
Test [4] relates to NCI-H460 (lung) cancer cell line. The experiment in a line: NCI sulforhodamine B growth inhibition, NCI-H460. It counts as cell-based, human. To be noted: NCI-H460, 48 h. The procedure:
as §1

Test [5] has as its system KM20L2 (colon) cancer cell line. The experiment in a line: NCI sulforhodamine B growth inhibition, KM20L2. It counts as cell-based, human. As to conditions: KM20L2, 48 h. The procedure: as §1
For test [6], the system named is DU-145 (prostate) cancer cell line. The test is described as follows: NCI sulforhodamine B growth inhibition, DU-145. As to conditions: DU-145, 48 h. It counts as cell-based, human. The protocol: as §1
The test system of test [7] is Human Cancer Cell Lines. The procedure: Inhibition of human cancer cell growth was assessed using the National Cancer Institute's standard sulforhodamine B assay as previously described.^10 In summary, cells in a 5% fetal bovine serum/RPMI1640 medium were inoculated in 96-well plates and incubated for 24 hrs. Next, serial dilutions of the compounds were added. After 48 h, the plates were fixed with trichloroacetic acid, stained with sulforhodamine B, and read with an automated microplate reader.

Where [8] appears, read: bracketed value, read-out: GI50.

By GI50 is commonly meant the concentration that inhibits growth by half. As for `CC[C@H](C)[C@@H]([C@@H](CC(=O)N1CCC[C@H]1[C@H](OC)[C@@H](C)C(=O)N[C@H](C)[C@@H](O)c1ccccc1)OC)N(C)C(=O)[C@@H](NC(=O)[C@H](C(C)C)N(C)C)C(C)C` [Auristatin E, auristatin E, reference compound], the GI50 in test [1] was more than 1 ng/mL; in test [1] (setting [8]) it was more than 1.37 nM; in test [2], 0.17 ng/mL; in test [2] (setting [8]) it was 0.232 nM; in test [3], 0.36 ng/mL; in test [3] (setting [8]), 0.492 nM. In addition, the GI50 in test [4] stood at 0.39 ng/mL; in test [4] (setting [8]) it was 0.533 nM; in test [5] it was 0.36 ng/mL; in test [5] (setting [8]) it was 0.492 nM; in test [6], 0.31 ng/mL; in test [6] (setting [8]) it was 0.424 nM.

With `CC[C@H](C)[C@@H]([C@@H](CC(=O)N1CCC[C@H]1[C@H](OC)[C@@H](C)C(=O)N[C@H](C)[C@@H](O)c1ccccc1)OC)N(C)C(=O)[C@@H](NC(=O)[C@@H](NC)C(C)C)C(C)C` [Desmethylauristatin E, desmethyl auristatin E, reference compound] (H-[NMeV]V[Dil][Dolaproine]-X1), the GI50 in test [1] is more than 1 ng/mL; in test [1] (setting [8]) it was more than 1.39 nM; in test [2], 0.29 ng/mL; in test [2] (setting [8]), 0.404 nM; in test [3], 0.31 ng/mL; in test [3] (setting [8]), 0.432 nM. Besides, the GI50 was found to be 0.49 ng/mL in test [4]; 0.683 nM in test [4] (setting [8]); 0.43 ng/mL in test [5]; 0.599 nM in test [5] (setting [8]); 0.3 ng/mL in test [6]; 0.418 nM in test [6] (setting [8]).

As for `CC[C@H](C)[C@@H]([C@@H](CC(=O)N1CCC[C@H]1[C@H](OC)[C@@H](C)C(=O)N[C@@H](Cc1ccccc1)c1nccs1)OC)N(C)C(=O)[C@@H](NC(=O)[C@H](C(C)C)N(C)C)C(C)C` [Dolastatin 10, dolastatin 10, reference compound], the GI50 in test [1] was 0.04 ng/mL; in test [1] (setting [8]), 0.051 nM; in test [2], 0.0042 ng/mL; in test [2] (setting [8]), 0.005 nM; in test [3], 0.0043 ng/mL; in test [3] (setting [8]), 0.006 nM. Moreover, the GI50 in test [4] came out at 0.18 ng/mL; in test [4] (setting [8]), 0.229 nM; in test [5] it was 0.008 ng/mL; in test [5] (setting [8]) it was 0.01 nM; in test [6] it was 0.0052 ng/mL; in test [6] (setting [8]) it was 0.007 nM.

Take `CC[C@H](C)[C@@H]([C@@H](CC(=O)N1CCC[C@H]1[C@H](OC)[C@@H](C)C(=O)NCCc1ccc2ccccc2n1)OC)N(C)C(=O)[C@@H](NC(=O)[C@H](C(C)C)N(C)C)C(C)C` [Quinstatin 2, 2-(1′-Dov-Val-Dil-Dap-2′-ethyl)-quinoline]: the GI50 in test [1] worked out at 9.3 ng/mL; in test [1] (setting [8]) it was 12.3 nM; in test [2] it was 0.31 ng/mL; in test [2] (setting [8]) it was 0.412 nM; in test [3], 0.23 ng/mL; in test [3] (setting [8]), 0.306 nM. Also, the GI50 is 5.1 ng/mL in test [4]; 6.78 nM in test [4] (setting [8]); 0.33 ng/mL in test [5]; 0.438 nM in test [5] (setting [8]); 0.31 ng/mL in test [6]; 0.412 nM in test [6] (setting [8]). The “increase in cancer cell growth inhibition as compared to auristatin AQ” value in test [7] (comparison with auristatin AQ) is “ten to one hundred times”.

As to `CC[C@H](C)[C@@H]([C@@H](CC(=O)N1CCC[C@H]1[C@H](OC)[C@@H](C)C(=O)NCCc1cnc2ccccc2c1)OC)N(C)C(=O)[C@@H](NC(=O)[C@H](C(C)C)N(C)C)C(C)C` [Quinstatin 3, 3-(1′-Dov-Val-Dil-Dap-2′-ethyl)-quinoline], the GI50 was 21 ng/mL in test [1]; 27.9 nM in test [1] (setting [8]); 0.23 ng/mL in test [2]; 0.31 nM in test [2] (setting [8]); 0.29 ng/mL in test [3]; 0.38 nM in test [3] (setting [8]). For the same compound, the GI50 in test [4] amounted to 31 ng/mL; in test [4] (setting [8]), 41.2 nM; in test [5], 0.4 ng/mL; in test [5] (setting [8]) it was 0.53 nM; in test [6] it was 0.2 ng/mL; in test [6] (setting [8]), 0.26 nM.

`CC[C@H](C)[C@@H]([C@@H](CC(=O)N1CCC[C@H]1[C@H](OC)[C@@H](C)C(=O)NCCc1ccc2ncccc2c1)OC)N(C)C(=O)[C@@H](NC(=O)[C@H](C(C)C)N(C)C)C(C)C` [Quinstatin 6, Dov-Val-Dil-Dap-2-(quinolin-6-yl)ethylamine]: the GI50 in test [1] came out at 2 ng/mL; in test [1] (setting [8]) it was 2.66 nM; in test [2], 0.4 ng/mL; in test [2] (setting [8]), 0.532 nM; in test [3], 0.3 ng/mL; in test [3] (setting [8]), 0.399 nM. For the same compound, the GI50 came to 4.3 ng/mL in test [4]; 5.71 nM in test [4] (setting [8]); 0.39 ng/mL in test [5]; 0.518 nM in test [5] (setting [8]); 0.3 ng/mL in test [6]; 0.399 nM in test [6] (setting [8]).

For `CC[C@H](C)[C@@H]([C@@H](CC(=O)N1CCC[C@H]1[C@H](OC)[C@@H](C)C(=O)NCCc1ccc2cccnc2c1)OC)N(C)C(=O)[C@@H](NC(=O)[C@H](C(C)C)N(C)C)C(C)C` [Quinstatin 7, 7-(1′-Dov-Val-Dil-Dap-2′-ethyl)-quinoline], the GI50 in test [1] is 3.1 ng/mL; in test [1] (setting [8]), 4.12 nM; in test [2], 0.03 ng/mL; in test [2] (setting [8]), 0.039 nM; in test [3], 0.024 ng/mL; in test [3] (setting [8]), 0.032 nM. Further, the GI50 in test [4] came to 11 ng/mL; in test [4] (setting [8]) it was 14.6 nM; in test [5], 0.041 ng/mL; in test [5] (setting [8]), 0.054 nM; in test [6] it was 0.03 ng/mL; in test [6] (setting [8]) it was 0.04 nM.

Turning to `CC[C@H](C)[C@@H]([C@@H](CC(=O)N1CCC[C@H]1[C@H](OC)[C@@H](C)C(=O)NCCc1cccc2cccnc12)OC)N(C)C(=O)[C@@H](NC(=O)[C@H](C(C)C)N(C)C)C(C)C` [Quinstatin 8, 8-(1′-Dov-Val-Dil-Dap-2′-ethyl)-quinoline], the GI50 worked out at 0.5 ng/mL in test [1]; 0.425 nM in test [1] (setting [8]); 0.04 ng/mL in test [2]; 0.053 nM in test [2] (setting [8]); 0.023 ng/mL in test [3]; 0.03 nM in test [3] (setting [8]). Besides, the GI50 in test [4] worked out at 0.9 ng/mL; in test [4] (setting [8]), 1.19 nM; in test [5], 0.04 ng/mL; in test [5] (setting [8]), 0.053 nM; in test [6], 0.04 ng/mL; in test [6] (setting [8]), 0.053 nM. Further, the “inhibition level compared with dolastatin 10” value in test [7] (in one of the experiments) is recorded as “at the dolastatin 10 level, but not consistently”.
